In ChEMBL document CHEMBL1275295, “Synthesis of some p-toluenesulfonyl-hydrazinothiazoles and hydrazino-bis-thiazoles and their anticancer activity” (Eur J Med Chem, 2010):

Key:
DU-145 [1] = assay: Inhibition of proliferation of human DU145 cells after 72 hrs by XTT assay; format: functional, cell-based; conditions: DU-145, 72 h
HepG2 [2] = assay: Inhibition of proliferation of human HepG2 cells after 72 hrs by XTT assay; format: functional, cell-based; conditions: HepG2, 72 h
HepG2 [3] = assay: Inhibition of proliferation of human HepG2 cells at 72.5 uM after 72 hrs by XTT assay; format: functional; conditions: HepG2, 72 h
DU-145 [4] = assay: Inhibition of proliferation of human DU145 cells at 102 uM after 72 hrs by XTT assay; format: functional; conditions: DU-145, 72 h
HepG2 [5] = assay: Inhibition of proliferation of human HepG2 cells at 44.2 uM after 72 hrs by XTT assay; format: functional; conditions: HepG2, 72 h
DU-145 [6] = assay: Inhibition of proliferation of human DU145 cells at 36.2 uM after 72 hrs by XTT assay; format: functional; conditions: DU-145, 72 h
HepG2 [7] = assay: Inhibition of proliferation of human HepG2 cells at 51 uM after 72 hrs by XTT assay; format: functional; conditions: HepG2, 72 h
DU-145 [8] = assay: Inhibition of proliferation of human DU145 cells at 35.2 uM after 72 hrs by XTT assay; format: functional; conditions: DU-145, 72 h
HepG2 [9] = assay: Inhibition of proliferation of human HepG2 cells at 35.2 uM after 72 hrs by XTT assay; format: functional; conditions: HepG2, 72 h
DU-145 [10] = assay: Inhibition of proliferation of human DU145 cells at 44.2 uM after 72 hrs by XTT assay; format: functional; conditions: DU-145, 72 h
HepG2 [11] = assay: Inhibition of proliferation of human HepG2 cells at 36.2 uM after 72 hrs by XTT assay; format: functional; conditions: HepG2, 72 h
DU-145 [12] = assay: Inhibition of proliferation of human DU145 cells at 34.1 uM after 72 hrs by XTT assay; format: functional; conditions: DU-145, 72 h
HepG2 [13] = assay: Inhibition of proliferation of human HepG2 cells at 34.1 uM after 72 hrs by XTT assay; format: functional; conditions: HepG2, 72 h
DU-145 [14] = assay: Inhibition of proliferation of human DU145 cells at 38.5 uM after 72 hrs by XTT assay; format: functional; conditions: DU-145, 72 h

Row | Structure (SMILES) | IC50 (DU-145 [1]) | IC50 (HepG2 [2]) | other results
1 | CCOC(=O)Cc1csc(N(NC(=O)c2csc(-c3ccccc3)n2)C(C)=O)n1 | > 58.1 µM | > 58.1 µM | 
2 | Cc1ccc(S(=O)(=O)NNC(N)=S)cc1 | 8.98 µM | 8.98 µM | inhibition at 72.5 µM (HepG2 [3]): 100%; inhibition at 102 µM (DU-145 [4]): 100%; inhibition at 44.2 µM (HepG2 [5]): 100%
3 | CCOC(=O)Cc1csc(N(C(C)=O)N(C(C)=O)S(=O)(=O)c2ccc(C)cc2)n1 | 46.4 µM | 11 µM | 
4 | CC(=O)N(c1nc(CCl)cs1)N(C(C)=O)S(=O)(=O)c1ccc(C)cc1 | > 62.3 µM | > 62.3 µM | 
5 | COc1cccc2c1C(=O)c1c(O)c3c(c(O)c1C2=O)C[C@@](O)(C(=O)CO)C[C@@H]3O[C@H]1C[C@H](N)[C@H](O)[C@H](C)O1 [DOXORUBICIN] | < 2.94 µM | < 2.94 µM | 
6 | CC(=O)N(c1nc(-c2ccccc2)cs1)N(C(C)=O)S(=O)(=O)c1ccc(C)cc1 | > 58.3 µM | > 58.3 µM | 
7 | Cc1ccc(S(=O)(=O)NNc2nc(-c3ccccc3)cs2)cc1 | 9.07 µM | 9.16 µM | inhibition at 36.2 µM (DU-145 [6]): 100%; inhibition at 51 µM (HepG2 [7]): 100%
8 | CC(=O)c1sc(N(C(C)=O)N(C(C)=O)S(=O)(=O)c2ccc(C)cc2)nc1C | 53.5 µM | 57.4 µM | 
9 | CCOC(=O)c1sc(NNS(=O)(=O)c2ccc(C)cc2)nc1C | 4.68 µM | < 4.51 µM | inhibition at 35.2 µM (DU-145 [8]): 100%; inhibition at 35.2 µM (HepG2 [9]): 100%
10 | Cc1ccc(S(=O)(=O)NNc2nc(C)cs2)cc1 | 6.96 µM | < 5.65 µM | inhibition at 44.2 µM (DU-145 [10]): 100%; inhibition at 36.2 µM (HepG2 [11]): 100%
11 | CC(=O)N(c1nc(C)cs1)N(C(C)=O)S(=O)(=O)c1ccc(C)cc1 | 7.63 µM | 7.36 µM | inhibition at 34.1 µM (DU-145 [12]): 100%; inhibition at 34.1 µM (HepG2 [13]): 100%
12 | CC(=O)c1sc(NNS(=O)(=O)c2ccc(C)cc2)nc1C | 9.84 µM | 8.77 µM | inhibition at 38.5 µM (DU-145 [14]): 100%
13 | CCOC(=O)c1sc(N(C(C)=O)N(C(C)=O)S(=O)(=O)c2ccc(C)cc2)nc1C | > 57 µM | > 57 µM | 
14 | O=C(NNc1nc(CCl)cs1)c1csc(-c2ccccc2)n1 | 49.2 µM | 11.2 µM | 
